Data published in PMC10954696, “Development of a novel AAK1 inhibitor via Kinobeads-based screening” (Scientific Reports, 2024).
“Also recorded” adds a separate entry of the source.

How the values were obtained:
[1] = molecular target: T1, His-tagged AAK1 catalytic domain (25–396) (Homo sapiens, UniProt Q2M2I8); assay: AAK1 activity assay: phosphorylation of GST-AP2µ2 (145–162) by His-AAK1 25–396 with [γ-32P]ATP; format: biochemical; conditions: for IC50: His-AAK1 25–396, GST-AP2µ2 (145–162), 100 µM [γ-32P]ATP, 30 °C, 20 min, read-out: IC50 against AAK1 activity
T1 construct: Purified His-AAK1 25–396 (200 ng); His10 (N); made in house; host or cells: COS-7 cells
Procedure: AAK1 phosphorylates AP2µ2 at Thr156; therefore, we set up an AAK1 activity assay using GST-fused AP2µ2 fragment (residues 145–162) as a substrate and anti-phospho-Thr156 antibody for detection of the substrate phosphorylation by AAK1.
(§1) Purified His-AAK1 25–396 (200 ng), His-GAK 2–370 (33 ng), His-BIKE 2–396 (87 ng), and His-STK16 2–306 (95 ng) were incubated with 10 µg GST-AP2µ2 (145–162)-His6 in a solution (20 µL) containing 50 mM HEPES pH7.5, 10 mM Mg(CH3COO)2, 1 mM DTT, and 0.1 mM [γ-^32P]ATP or ATP at 30 °C for the indicated time periods (His-GAK 2–370, 10 min; His-BIKE 2–396, 90 min; His-STK16 2–306, 20 min) in the presence or absence of various concentrations of inhibitors (5% DMSO). Then, 15 µL of the sample was spotted onto Whatman P81 paper and washed using 95% EtOH, followed by scintillation counting of the paper to measure the phosphate incorporation into GST-AP2µ2 (145–162)-His6. For immunoblot detection, reactions were terminated by the addition of an equal volume of 2 × SDS-PAGE buffer at various time points, followed by immunoblot analyses using an anti-phospho-AP2µ2 (AP2M1) at Thr156 antibody.

His-GAK 2–370 = molecular target: T2, His-GAK 2–370 (Mus musculus, UniProt Q99KY4); assay: NAKs activity assay: phosphorylation of GST-AP2µ2 (145–162); format: biochemical; conditions: His-GAK 2–370, 0.1 mM ATP, 30 °C, 10 min, duplicate experiments; read-out: IC50 against GAK activity
T2 construct: His-GAK 2–370 (33 ng); His6 (N); made in house; host or cells: COS-7 cells
T2 sequence (Q99KY4 2-370): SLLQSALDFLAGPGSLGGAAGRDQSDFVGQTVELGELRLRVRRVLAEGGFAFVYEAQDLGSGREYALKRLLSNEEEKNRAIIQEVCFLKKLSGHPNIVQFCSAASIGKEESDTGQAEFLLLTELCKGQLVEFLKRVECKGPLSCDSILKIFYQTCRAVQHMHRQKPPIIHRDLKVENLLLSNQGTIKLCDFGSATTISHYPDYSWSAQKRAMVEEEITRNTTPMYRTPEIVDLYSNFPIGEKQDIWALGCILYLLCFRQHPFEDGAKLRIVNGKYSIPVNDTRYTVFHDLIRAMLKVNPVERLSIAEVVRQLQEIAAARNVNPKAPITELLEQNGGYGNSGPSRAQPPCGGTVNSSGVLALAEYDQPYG
Procedure: as §1
(§2) Supplemental Information S3
(§3) Effect of TIM-98a on NAKs’ activities. Purified His-GAK 2–370 (33 ng, closed triangles), His-BIKE 2–396 (87 ng, closed circles), and His-STK16 2–306 (95 ng, open circles) were incubated with 10 µg GST-AP2µ2 (145–162)-His6 in a solution (20 µL) containing 50 mM HEPES pH7.5, 10 mM Mg(CH3COO)2, 1 mM DTT, and 0.1 mM ATP at 30°C for the indicated time periods (His-GAK 2–370, 10 min; His-Bike 2–396, 90 min; His-STK16 2–306, 20 min) in the presence or absence (-) of various concentrations of TIM-098a. […] NAK’s activities are quantitated by densitometric scanning of the immunoreactive bands and expressed as a percentage of the average value in the absence of the compound (-). Results represent duplicate experiments. Molecular mass markers (kDa) are indicated in the left lanes of immunoblot panels.
(§4) (1 picture or pasted object on this page, not shown here)

His-BIKE 2–396 = molecular target: T3, His-BIKE 2–396 (Mus musculus, UniProt Q91Z96); assay: as above; format: biochemical; conditions: His-BIKE 2–396, 0.1 mM ATP, 30 °C, 90 min, duplicate experiments; read-out: IC50 against BIKE activity
T3 construct: His-BIKE 2–396 (87 ng); His6 (N); made in house; host or cells: COS-7 cells
Procedure: as §1, §2, §3, §4

His-STK16 2–306 = molecular target: T4, His-STK16 2–306 (Mus musculus, UniProt O88697); assay: as above; format: biochemical; conditions: His-STK16 2–306, 0.1 mM ATP, 30 °C, 20 min, duplicate experiments; read-out: IC50 against STK16 activity
T4 construct: His-STK16 2–306 (95 ng); His6 (N); made in house; host or cells: COS-7 cells
Procedure: as §1, §2, §3, §4

[2] = molecular target: T5, AAK1 catalytic domain (25–396) in transfected COS-7 cells (Homo sapiens, UniProt Q2M2I8); assay: AAK1 activity in transfected COS-7 cells (pThr156 of GST-AP2µ2 145–162, immunoblot); format: cell-based; conditions: COS-7 cells expressing AAK1 25–396 and GST-AP2µ2 (145–162), 6 h treatment
T5 construct: transfected with 0.2 µg of pME-His-AAK1 25–396; expressed in transfected cells; host or cells: COS-7 cells
Procedure: To examine the effect of TIM-098a on AAK1 activity in cells, we set up an AAK1 activity assay in the cells as follows. Transfection of expression plasmids for the catalytic domain of AAK1(25–396) together with its artificial substrate (GST-AP2µ2 145–162) into COS-7 cells was followed by detection of phosphorylation of Thr156 via immunoblot analyses with anti-phospho-Thr156 antibody after 6 h-treatment with or without TIM-098a (Fig. 5). […] When we treated AAK1/GST-AP2µ2 (145–162) expressing COS-7 cells with various concentrations of TIM-098a, AAK1-catalyzed Thr156 phosphorylation of GST-AP2µ2 (145–162) was suppressed by TIM-098a treatment in a concentration-dependent manner (Fig. 5b), indicating the cell-membrane permeability and inhibitory effect of the inhibitor on AAK1 activity in the cells.
COS-7 cells and HeLa cells were obtained from American Type Culture Collection. COS-7 cells were cultured in 6-well plates or 10 cm dishes in Dulbecco’s modified Eagle’s medium supplemented with 10% fetal bovine serum at 37 °C in 5% CO2. COS-7 cells in 6-well plates were transfected with 0.2 µg of pME-His-AAK1 25–396 and 1.8 µg of pME-GST-AP2µ2 (145–162) expression plasmids using polyethylenimine “MAX” (Polysciences, Inc. Warrington, PA), according to the manufacturer’s protocol. […]

CaMKKβ/2 [3] = molecular target: T6, CaMKKβ/2 (Rattus norvegicus, UniProt O88831); assay: CaMKK activity assay: phosphorylation of GST-CaMKIα 1–293KE; format: biochemical; conditions: up to 2.6 µM, immunoblot anti-phospho-CaMKIα (pThr177), 30 °C, 10 min, Fig. 4c
T6 construct: His6; made in house; host or cells: COS-7 cells
Procedure: (§5) Purified His-CaMKKα/1 or His-CaMKKβ/2 (40 ng) was incubated with 10 µg GST-CaMKIα 1–293KE in a solution (20 µL) containing 50 mM HEPES pH7.5, 10 mM Mg (CH3COO)2, 1 mM DTT, 2 mM CaCl2, 6 µM CaM, and 0.1 mM [γ-^32P]ATP at 30 °C for a reaction time of 20 min in the presence or absence of compounds. Then, 15 µL of the sample was spotted onto Whatman P81 paper, followed by scintillation counting of the paper as described above to measure the phosphate incorporation into GST-CaMKIα 1–293KE. Reactions were terminated by the addition of an equal volume of 2 × SDS-PAGE for the immunoblot assay at 30 °C for 10 min using 2.5 ng of CaMKKs in the solution described above containing 0.1 mM ATP, followed by immunoblot analyses using anti-phospho-CaMKIα at the Thr177 antibody.

CaMKKα/1 [4] = molecular target: T7, CaMKKα/1 (Rattus norvegicus, UniProt P97756); assay: as above; format: biochemical; conditions: up to 2.6 µM, immunoblot anti-phospho-CaMKIα (pThr177), 30 °C, 10 min, Fig. 4c
T7 construct: His6; made in house; host or cells: COS-7 cells
Procedure: as §5

[5] = system: HeLa cells overexpressing His-tagged AAK1 (1–863); assay: Early endosome formation (EEA1-positive vesicles), immunofluorescence microscopy; format: cell-based, human; conditions: 10 µM, 6 h, AAK1-transfected HeLa cells
Procedure: (§6) HeLa cells were cultured in 6-well plates containing Dulbecco’s modified Eagle’s medium supplemented with 10% fetal bovine serum at 37 °C in 5% CO2. The cells were transfected with 2 µg of an AAK1-expression plasmid (pME-His-AAK1 1–863) using polyethylenimine “MAX” according to the manufacturer’s protocol. After 42 h of culture, the cells were cultured with or without 10 µM TIM-098a for 6 h. HeLa cells grown on coverslips were fixed with 3.7% paraformaldehyde in PBS for 15 min and permeabilized with 0.1% Triton X-100 in PBS for 5 min at room temperature. Next, the cells were blocked with 4% bovine serum albumin (BSA) in PBS for 15 min and incubated with primary antibodies diluted in 4% BSA in PBS for 15 min. The cells were washed three times with PBS and incubated for 15 min with the appropriate secondary antibodies conjugated to Alexa fluorophores. After washing, the coverslips were mounted on microscope slides and viewed under an FV1000 confocal microscope (Olympus, Tokyo, Japan). Quantification of EEA1-positive vesicles was performed using ImageJ software. EEA1 fluorescence signals with areas greater than 430 nm^2 were counted as EEA1-positive vesicles using the particle analyzer function in ImageJ. To account for clustered EEA1 signals, the watershed segmentation method was applied in ImageJ before using the particle analyzer.

HeLa cells = assay: as above; format: cell-based, human; conditions: 10 µM, 6 h, untransfected HeLa cells
Procedure: as §6

CaMKKα/1 [6] = molecular target: T7, CaMKKα/1; design: method as in PMID 32298102; conditions: cited from earlier work
His-tagged AAK1 = molecular target: T8, His-tagged AAK1 (Homo sapiens, UniProt Q2M2I8); assay: Pull-down of His-tagged AAK1 from COS-7 cell extracts with TIM-063–immobilized sepharose (TIM-127-sepharose); format: binding; conditions: COS-7 extracts, elution with 100 µM TIM-063
T8 construct: expressed in transfected cells; host or cells: COS-7 cells
Procedure: COS-7 cells transfected with expression plasmids for His-tagged AAK1 were lysed with buffer A containing protease inhibitors as described above, and then cell lysates (200 µL) were incubated with either TIM-127-coupled sepharose or control sepharose (10 µL) for 30 min. After washing the resin thrice with buffer A (500 µL), samples were eluted from the sepharose resin by incubation with 20 µL of 100 µM TIM-063 in buffer A as previously described, followed by immunoblot analysis.

CaMKKβ/2 [7] = molecular target: T6, CaMKKβ/2; design: method as in PMID 32298102; conditions: cited from earlier work

T1 sequence (Q2M2I8 25-396): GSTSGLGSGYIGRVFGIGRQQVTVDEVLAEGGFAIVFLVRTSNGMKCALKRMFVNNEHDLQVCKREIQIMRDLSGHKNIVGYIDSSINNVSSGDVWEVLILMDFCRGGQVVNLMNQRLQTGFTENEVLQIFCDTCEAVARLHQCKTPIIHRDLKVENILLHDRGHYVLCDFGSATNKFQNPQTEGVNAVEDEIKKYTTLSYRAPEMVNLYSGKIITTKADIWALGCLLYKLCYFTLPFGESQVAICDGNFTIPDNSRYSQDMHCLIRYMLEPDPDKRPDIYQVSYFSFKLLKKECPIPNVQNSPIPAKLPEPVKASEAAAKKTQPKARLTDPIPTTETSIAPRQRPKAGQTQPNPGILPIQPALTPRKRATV
T5 sequence (Q2M2I8 25-396): as above
T3 sequence (Q91Z96 2-396): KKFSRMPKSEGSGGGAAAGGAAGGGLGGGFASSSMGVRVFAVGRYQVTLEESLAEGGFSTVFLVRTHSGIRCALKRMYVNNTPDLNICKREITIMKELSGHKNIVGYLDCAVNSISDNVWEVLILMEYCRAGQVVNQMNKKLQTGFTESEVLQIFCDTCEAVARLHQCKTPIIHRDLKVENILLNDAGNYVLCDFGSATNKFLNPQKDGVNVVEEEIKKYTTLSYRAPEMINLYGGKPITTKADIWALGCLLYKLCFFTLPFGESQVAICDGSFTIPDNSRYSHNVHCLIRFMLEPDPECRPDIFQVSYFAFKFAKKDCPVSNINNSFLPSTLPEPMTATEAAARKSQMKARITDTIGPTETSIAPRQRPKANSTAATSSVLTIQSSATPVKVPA
T4 sequence (O88697 2-305 limits assumed): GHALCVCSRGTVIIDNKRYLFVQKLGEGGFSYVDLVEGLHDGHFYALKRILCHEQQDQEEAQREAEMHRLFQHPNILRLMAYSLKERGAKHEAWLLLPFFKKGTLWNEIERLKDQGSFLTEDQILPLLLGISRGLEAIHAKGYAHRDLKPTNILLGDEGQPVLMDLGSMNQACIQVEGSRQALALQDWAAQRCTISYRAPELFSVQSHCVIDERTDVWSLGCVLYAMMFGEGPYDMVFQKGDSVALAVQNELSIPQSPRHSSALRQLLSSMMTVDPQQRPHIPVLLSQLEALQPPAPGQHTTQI

IC50 [1] [µM]	AAK1 inhibitory potency relative to TIM-063 ([1]; higher potency than TIM-063)	selectivity for AAK1: higher inhibitory potency than for other NAKs ([1]; versus GAK, BIKE, STK16)	IC50 (His-GAK 2–370) [nM]	IC50 (His-BIKE 2–396) [µM]	IC50 (His-STK16 2–306) [µM]	IC50 [2] [nM]	inhibition at 2.6 µM ([1]; 2.6 µM compound) [%]	inhibition at 26 µM ([1]; 26 µM compound) [%]	inhibitory effect on AAK1 relative to that on CaMKK ([1]; lower on AAK1 than on CaMKK)	interaction with AAK1 catalytic domain (His-AAK 25–396) (His-tagged AAK1)	interaction with His-tagged AAK1 full length (1–863) (His-tagged AAK1)	Structure (SMILES)	effect on CaMKKβ/2 activity (CaMKKβ/2 [3])	effect on CaMKKα/1 activity (CaMKKα/1 [4])	number of early endosomes in AAK1-transfected cells [5]	early endosome formation in wild type cells (HeLa cells)	IC50 (CaMKKα/1 [6]) [nM]	IC50 (CaMKKβ/2 [7]) [nM]
0.24	~ 35 fold	4–30 fold	1040	5.99	7.15	870						Nc1ccc2c(c1)nc1c3cc(O)cc4cccc(c(=O)n21)c43 [TIM-098a, 11-amino-2-hydroxy-7H-benzo[de]benzo[4,5]imidazo[2,1-a]isoquinolin-7-one]	without any significant inhibitory effects; also recorded: without any inhibitory activity	without any significant inhibitory effects; also recorded: without any inhibitory activity	recovered to the level of untransfected wild type cells	not affected		
8.51							~20	~80	~ tenfold	strong interaction	weak binding	O=c1c2cccc3c([N+](=O)[O-])c(O)cc(c32)c2nc3ccccc3n12 [TIM-063, 2-hydroxy-3-nitro-7H-benzo[de]benzo[4,5]imidazo[2,1-a]isoquinolin-7-one]					630	960
